Source: patent publication US20040002425A1, “Triketone derivatives and herbicides” (Idemitsu Kosan Co., Ltd., priority 1998, published 2004)

Tested on: Transplanted paddy rice plant
Experiment: Biological Test 1 (treatment on the 3rd day after transplantation): chemical injury to paddy rice
Assay type: in vivo
Parameters: scale not given here
Settings: Treatment performed 3 days after transplantation
Method in brief: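 Compound formulated as 10% wettable powder, applied at a predetermined amount on day 3 after transplanting 2.5-leaf rice seedlings into flooded (3 cm) paddy-soil pots in a 20-25° C greenhouse. Chemical injury to rice scored against set criteria 30 days after treatment.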

[1] = dose 100 g/ha, examined on the 30th day after treatment
[2] = dose 200 g/ha, examined on the 30th day after treatment

SMILES | Chemical injury, Transplanted paddy rice plant (dose 100 g/ha) | Chemical injury, Transplanted paddy rice plant (dose 200 g/ha) | Chemical injury, Transplanted paddy rice plant [1] | Chemical injury, Transplanted paddy rice plant [2]
CSC1=C(C(=O)c2ccc3c(c2Cl)CCCS3(=O)=O)C(=O)CCC1 [B-79] | 0 | 0 | – | –
O=C1CCCC(O)=C1C(=O)c1cc2c(cc1[N+](=O)[O-])OCO2 [Comparative Example I-1, reference compound] | – | – | 3 | 4
CC1(C)CC(C)(C)C(=O)C(C(=O)c2ccc3c(c2Cl)CCS3(=O)=O)C1=O [A-15, 4-chloro-5-(4,4,6,6-tetramethyl-1,3-dioxocyclohexan-2-yl)carbonyl-2,3-dihydrobenzothiophene-1,1-dioxide] | – | – | 1 | 3
